Consider 17 compounds from ChEMBL document CHEMBL2151026, “Comparative study on antioxidant capacity of flavonoids and their inhibitory effects on oleic acid-induced hepatic steatosis in vitro” (Eur J Med Chem, 2011).

By IC30 is commonly meant the concentration at which the effect reaches the 30% level.

Calls of active or inactive are those of the source. The rule behind the calls is not given here. A value given as a limit tells only on which side of the number the result lay.

Data set [1] relates to HepG2. As to the kind of experiment: Antioxidant activity in human HepG2 cells assessed as reduction of oleic acid-induced ROS generation incubated for 24 hrs by DHCF-DA based fluorimetric assay relative to untreated control. Type of data set: functional. The conditions noted are these: for IC30: Homo sapiens, HepG2, 24 h.
Data set [2] has as its system HepG2. As to the kind of experiment: Inhibition of oleic acid-induced triglyceride over-accumulation in human HepG2 cells incubated for 24 hrs relative to untreated control. It counts as functional. Particulars: for IC30: Homo sapiens, HepG2, 24 h.
The test system of data set [3] is HepG2. As to the kind of experiment: Cytotoxicity against human HepG2 cells incubated for 24 hrs by MTT assay. Type of data set: cell-based. The conditions noted are these: hepg2, 24 h.
Data set [4] can be described thus: Reducing activity assessed as chlorogenic acid equivalent per mmol standard at 37 degC for 30 mins by Folin-Ciocalteu reagent assay.
A short description of data set [5]: Reducing activity by cyclic voltammetry.
The test system of data set [6] is HepG2. As to the kind of experiment: Proxidant activity in human HepG2 cells assessed as increase in oleic acid-induced ROS generation at >25 uM incubated for 24 hrs by […] based fluorimetric assay relative to untreated control. Particulars: hepg2, 24 h. Type of data set: cell-based.
Data set [7] relates to HepG2. Nature of the data set: Proxidant activity in human HepG2 cells assessed as increase in oleic acid-induced ROS generation at >10 uM incubated for 24 hrs by […] based fluorimetric assay relative to untreated control. Type of data set: cell-based. The conditions noted are these: hepg2, 24 h.

With `O=C1C[C@@H](c2ccc(O)cc2)Oc2cc(O)cc(O)c21` [NARINGENIN], the Imax entry with HepG2 [1] and in the data set with HepG2 [2] was “inactive” throughout. Further, the Activity with HepG2 [3] was over 200 µM; in data set [4] it was 0.55 mM; in data set [5], 0.71 V.

For the compound `COc1cc(-c2oc3cc(O)cc(O)c3c(=O)c2O)ccc1O` [ISORHAMNETIN], the Imax is 43.8% with HepG2 [1] and 41.8% in the data set with HepG2 [2]. Further, the inhibition entry with HepG2 [1] is “Dose-dependent effect”. Moreover, the IC30 in the data set with HepG2 [1] came out at 69.3 µM; in the data set on HepG2 [2] it was 90.5 µM. The Activity was over 200 µM with HepG2 [3], 1.04 mM in data set [4] and 0.115 V in data set [5].

Regarding `C[C@@H]1O[C@@H](OC[C@H]2O[C@@H](Oc3c(-c4ccc(O)c(O)c4)oc4cc(O)cc(O)c4c3=O)[C@H](O)[C@@H](O)[C@@H]2O)[C@H](O)[C@H](O)[C@H]1O` [RUTIN], the Imax in the data set with HepG2 [1] was 25.2%; with HepG2 [2] it was 28.2%. For the same compound, the inhibition entry with HepG2 [1] is “Dose-dependent effect”. In addition, the IC30 is over 250 µM with HepG2 [1] and over 200 µM with HepG2 [2]. Moreover, the results for the Activity (in the data set with HepG2 [3]; in data set [4]; in data set [5]) were over 250 µM, 1.35 mM and 0.306 V, respectively.

In the case of `O=c1cc(-c2ccc(O)cc2)oc2cc(O)cc(O)c12` [APIGENIN], the Activity result was “Toxic” in the data set on HepG2 [6]; over 150 µM in the data set on HepG2 [3]; “Toxic” with HepG2 [7]; 0.39 mM in data set [4]; 0.623 V in data set [5]. The Imax entry with HepG2 [1] and in the data set with HepG2 [2] was “inactive” in each case.

Turning to `O=C1c2c(O)cc(O)cc2O[C@H](c2ccc(O)c(O)c2)[C@H]1O` [(+)-TAXIFOLIN], the Imax in the data set with HepG2 [1] turned out to be 40.1%; with HepG2 [2], 43.4%. Besides, the figures for the IC30 in the data set with HepG2 [1] and in the data set on HepG2 [2] were 40 µM and 63.6 µM, respectively. In addition, the Activity was over 200 µM in the data set on HepG2 [3], 0.99 mM in data set [4] and 0.248 V in data set [5].

With `O=c1c(O)c(-c2cc(O)c(O)c(O)c2)oc2cc(O)cc(O)c12` [MYRICETIN], the Imax in the data set on HepG2 [1] came out at 34.5%; in the data set on HepG2 [2], 24.8%. Further, the inhibition result with HepG2 [1] is “Dose-dependent effect”. The IC30 in the data set on HepG2 [1] was 123 µM; with HepG2 [2] it was over 150 µM. For the same compound, the Activity in the data set on HepG2 [3] was over 200 µM; in data set [4] it was 1.02 mM; in data set [5] it was 0.115 V.

As to `O=c1c(O)c(-c2ccc(O)c(O)c2)oc2cc(O)cc(O)c12` [QUERCETIN], the Imax is on record as 43.6% in the data set on HepG2 [1] and 46.1% in the data set on HepG2 [2]. The inhibition result in the data set on HepG2 [1] is “Dose-dependent effect”. In addition, the IC30 worked out at 30.8 µM in the data set with HepG2 [1] and 14.9 µM in the data set on HepG2 [2]. The Activity in the data set on HepG2 [3] is over 75 µM; in data set [4] it was 1.24 mM; in data set [5], 0.218 V.

As for `O=c1c(O)c(-c2ccc(O)cc2)oc2cc(O)cc(O)c12` [KAEMPFEROL], the figures for the Imax in the data set with HepG2 [1] and in the data set on HepG2 [2] were 42.2% and 58.6%, respectively. Also, the inhibition result in the data set on HepG2 [1] is “Dose-dependent effect”. Further, the values for the IC30 in the data set with HepG2 [1] and in the data set with HepG2 [2] were 68.7 µM and 121 µM, respectively. Besides, the Activity is over 200 µM in the data set with HepG2 [3], 1.08 mM in data set [4] and 0.189 V in data set [5].

For the compound `O=c1c(-c2ccc(O)cc2)coc2cc(O)cc(O)c12` [GENISTEIN], in the data set with HepG2 [1], the Imax was determined as 17.3%. Further, the IC30 in the data set on HepG2 [1] is over 50 µM. In addition, the Imax entry with HepG2 [2] was “inactive”. Besides, the Activity in the data set on HepG2 [3] is over 50 µM; in data set [4], 0.33 mM; in data set [5], 0.614 V.

As for `O=c1c(O)c(-c2ccccc2)oc2cc(O)cc(O)c12` [GALANGIN], the Imax in the data set with HepG2 [1] worked out at 12.4%. Also, in the data set with HepG2 [1], the 30% effect concentration (IC30) is over 50 µM. The Imax result with HepG2 [2] was “inactive”. Moreover, the Activity with HepG2 [3] was over 50 µM; in data set [4] it was 0.75 mM; in data set [5] it was 0.354 V.

Turning to `O=c1cc(-c2ccccc2)oc2cc(O)cc(O)c12` [CHRYSIN], the Imax result in the data set on HepG2 [1] and with HepG2 [2] was “inactive” each time. Besides, the Activity with HepG2 [3] is over 20 µM; in data set [4], 0.16 mM; in data set [5] it was 0.81 V.

For `O=C(O[C@@H]1Cc2c(O)cc(O)cc2O[C@@H]1c1cc(O)c(O)c(O)c1)c1cc(O)c(O)c(O)c1` [EPIGALOCATECHIN GALLATE], the Imax in the data set with HepG2 [1] stood at 40.2%; in the data set with HepG2 [2], 54.2%. Besides, the inhibition entry in the data set on HepG2 [1] was “Dose-dependent effect”. In addition, the IC30 with HepG2 [1] is 26.2 µM; in the data set with HepG2 [2], 6.3 µM. The Activity in the data set on HepG2 [3] was over 200 µM; in data set [4] it was 2.2 mM; in data set [5], 0.125 V.

`O=c1c(-c2ccc(O)cc2)coc2cc(O)ccc12` [DAIDZEIN]: the results for the Imax with HepG2 [1] and in the data set with HepG2 [2] were 37.5% and 34.5%, respectively. Also, the inhibition result in the data set with HepG2 [1] is “Dose-dependent effect”. Also, the concentration for an effect of 30% (IC30) amounted to 135 µM in the data set on HepG2 [1] and 140 µM in the data set with HepG2 [2]. Moreover, the Activity is over 200 µM in the data set with HepG2 [3], 0.4 mM in data set [4] and 0.596 V in data set [5].

With `Oc1cc(O)c2c(c1)O[C@H](c1ccc(O)c(O)c1)[C@H](O)C2` [(-)-EPICATECHIN], the results for the Imax with HepG2 [1] and in the data set with HepG2 [2] were 38.1% and 46.6%, respectively. Moreover, the IC30 in the data set on HepG2 [1] worked out at 103 µM; with HepG2 [2], 166 µM. The Activity is over 250 µM in the data set with HepG2 [3] and 1.05 mM in data set [4].

`COc1ccc([C@@H]2CC(=O)c3c(O)cc(O)cc3O2)cc1O` [HESPERETIN]: the Imax in the data set on HepG2 [1] came to 23%. Besides, in the data set on HepG2 [1], the IC30 was over 150 µM. Besides, in the data set with HepG2 [2], the Imax entry was “inactive”. For the same compound, the results for the Activity (in the data set with HepG2 [3]; in data set [4]; in data set [5]) were over 100 µM, 0.53 mM and 0.556 V, respectively.

As to `Oc1cc(O)c2c(c1)O[C@H](c1ccc(O)c(O)c1)[C@@H](O)C2` [CIANIDANOL], the Imax in the data set on HepG2 [1] was 29.8%; with HepG2 [2] it was 28.7%. In addition, the IC30 in the data set with HepG2 [1] and in the data set with HepG2 [2] was over 250 µM each time. The results for the Activity (in the data set on HepG2 [3]; in data set [4]; in data set [5]) were over 250 µM, 0.77 mM and 0.285 V, respectively.

For the compound `O=c1cc(-c2ccc(O)c(O)c2)oc2cc(O)cc(O)c12` [LUTEOLIN], the Imax in the data set with HepG2 [1] was 24%; in the data set with HepG2 [2] it was 24.2%. The 30% effect concentration (IC30) in the data set on HepG2 [1] and in the data set on HepG2 [2] was over 20 µM in each case. The Activity in the data set on HepG2 [3] is over 20 µM; in data set [4] it was 0.91 mM; in data set [5] it was 0.269 V.
